Test results from US7449558B2, “Site-specific labelling of proteins” (National University of Singapore, priority 2003, dated 2008).

Experiments:
N-terminal cysteine GST = biological target: T1, N-terminal cysteine GST (Schistosoma japonicum, UniProt P08515); test: In vivo time-course labelling of N-terminal cysteine GST in live bacterial cells; type: cell-based, E. coli; conditions: cells expressing labelled GST, FIG. 15
T1 construct: Ssp DnaB intein tag (pTWIN2) (N, cleaved yes); expressed in transfected cells; host or cells: E. coli ER2566 transformed with pTWIN2-GST
T1 sequence (P08515 whole entry, added parts left off): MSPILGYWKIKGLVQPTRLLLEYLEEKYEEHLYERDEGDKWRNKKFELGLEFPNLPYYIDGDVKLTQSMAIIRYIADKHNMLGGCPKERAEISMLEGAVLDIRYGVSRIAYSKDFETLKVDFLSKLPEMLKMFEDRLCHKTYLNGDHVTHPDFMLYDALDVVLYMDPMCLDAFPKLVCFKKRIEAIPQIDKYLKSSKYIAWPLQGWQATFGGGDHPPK
Procedure: To generate in vivo proteins having N-terminal cysteine residues, bacterial cells expressing N-terminal cysteine-containing proteins EGFP and GST fused to the C-terminus of the Ssp DnaB mini-intein were induced to undergo self-cleavage, releasing the N-terminal cysteine protein, then incubated with the probes over a period of 24 h.
Briefly, the above bacterial constructs were transformed into the E. coli expression strain ER2566 (NEB) and grown in 100 mg/L ampicillin containing LB media at 37° C. […]
For the time-course labelling experiments, a small sample of cells was removed at each time interval, quenched with 0.01M cysteine, and lysed by boiling with SDS loading buffer. The resulting sample was analyzed directly on a 12% SDS-PAGE. Fluorescence labelling was visualized with a Typhoon™ fluorescence scanner (Amersham Biosciences). Biotinylated proteins were detected by western blotting (with anti-biotin-HRP) with the Enhanced ChemiLuminescent™ kit (Amersham).
Results are shown in FIG. 13, where i=cells labelled with probe 2 (FL), ii=cells labelled with probe 3 (TMR) and iii=cells labelled with probe 5 (biotin) (lanes 1-8 are samples taken at 0 min, 10 min, 30 min, 1 h, 3 h, 6 h, 12 h and 24 h, respectively). The results of the 24 hour time-course are quantified in FIG. 14 (FL=♦, TMR=▪ and BIOTIN=▴).

HEK293 cells = test: Cell toxicity in HEK293 cells during labelling; type: cell-based; conditions: 100 μM, 24 h
Procedure: Briefly, HEK293 cells grown in DMEM+10% FBS media at 37° C. with 5% CO2 were transiently transfected with pT-Rex-DEST30-intein-EGFP-NLS or pT-Rex-DEST30-intein-ECFP-NLS using Polyfect™ (Qiagen, USA). See FIGS. 12ii. and iii., respectively, for in vivo intein cleavage for the expressed EGFP and ECFP proteins expressed in HEK293 cells. After 36 hours of protein expression, cells were washed in 1×PBS and cystine-free DMEM (Sigma) was added. The biotin-thioester probe, probe 5, was added to a final concentration of 100 μM (10-100 μM also worked) and cells were incubated for another 24 h. […] Cells were harvested by centrifugation at 1000 rpm for 10 min and resuspended in 1×PBS. Washings were repeated at least 3 times, and cells were lysed in PBS using glass beads. Magnetic streptavidin beads (Promega, USA) were used to pull-down all biotinylated proteins in the cell lysate. Beads were washed twice in 1× PBS, then boiled in 1×SDS loading buffer and loaded onto a 12% SDS-PAGE. Western blotting was used to assess biotinylated proteins, as described above.

[1] = tested on: control proteins without N-terminal cysteine (GST, Protease, Lipase, Papain, Pepsin); test: In vitro labelling of control proteins without an N-terminal cysteine (site-specificity); type: biochemical; conditions: 5 control proteins with no or only internal cysteines, 60 min incubation
Procedure: Probes were prepared as 200 μM stocks (25× in DMSO) and stored at −20° C. In a typical labelling reaction, 6 μl of each probe (final concentration: 8 μM) was added to 50 μl of pure protein (1 mg/ml) dissolved in 1×PBS (final concentration of protein: ˜[…]), with or without 1 mM DTT, and the reaction was topped up with 1×PBS to a final volume of 150 μl. DTT was added to experiments, where live cells were used, to reduce background labelling. At specific time intervals, 15 μl of the reaction was withdrawn and quenched by addition of 1.7 μl of 100 mM cysteine to the reaction mixture (final concentration of cysteine: 10 mM), followed by denaturation with SDS-PAGE loading dye at 95° C. for 3 min. The loading dye also serves to hydrolyze the diacetate groups on probes 2 and 4, thereby releasing the fluorescence.
Probe 3 was used in the labelling reaction, and the reaction was performed as mentioned above with 60 min incubation time. All proteins are available from Sigma (St Louis, USA). (Lane 1. GST (cat #: G-4385); Lane 2. Protease (P-5380); Lane 3. Lipase (L-9031); Lane 4. Papain (P-4762); Lane 5. Pepsin (P-6887); Lane 6. BioRad Precision Plus Protein Standards).

[2] = tested on: N-terminal cysteine ECFP-NLS; test: Fluorescence microscopy / FRET of HEK293 cells expressing N-terminal cysteine ECFP-NLS; type: cell-based; conditions: HEK293 cells transfected with ECFP-NLS
Source text: Intein-fused EGFP and ECFP (enhanced cyan fluorescent protein) were constructed, in which an extra N-terminal cysteine was introduced into both EGFP and ECFP, as described above. To facilitate evaluation of the labelling, as well as to assess whether the strategy targets proteins expressed in subcellular compartments of mammalian cells (e.g. nucleus), a nuclear localization sequence (NLS) was fused to ECFP, generating ECFP-NLS. The intein-fused EGFP gene was amplified from the above bacterial construct, while the ECFP gene with a nuclear localization sequence (ECFP-NLS) was amplified from pECFP-Nuc (Clontech, USA) and cloned first into the pTWIN1 vector. Using the GATEWAY™ cloning system (Invitrogen, USA), the intein-fused genes were cloned into the donor vector pDONR201, followed by recombination of the cloned genes into a mammalian expression vector pT-Rex-DEST30 (Invitrogen). All constructs were sequence verified. […]
Fluorescence microscopy experiments were also performed using HEK293 mammalian cells. […] The fluorescence images were obtained using the excitation and emission channels described above for the bacterial experiments.

N-terminal cysteine EGFP = N-terminal cysteine EGFP (Aequorea victoria, UniProt P42212, F64L/H231L/S65T); conditions: labelled bacterial cells expressing EGFP, excitation 470±20 nm, emission 605±30 nm
Procedure: The FRET channel for CFP/TMR pair was recorded using filters with an excitation: 436±20 nm and emission: 620±20 nm (Chroma). The FRET channel for GFP/TMR pair was using filters with excitation=470±20 nm and emission=605±30 nm (Zeiss).

O=C(CNC(=O)c1ccc(C2=C3C=CC(O)C=C3Oc3cc(O)ccc32)c(C(=O)O)c1)SCc1ccccc1 (stereo not drawn) [Probe 2, N-benzylsulfanylcarbonylmethyl-6-(3,6-dihydroxy-3H-xanthen-9-yl)-isophthalamic acid]
specificity of labelling inside the live cell (SDS-PAGE) (N-terminal cysteine GST): only the desired protein was labelled specifically, as well as covalently, inside the live cell, with little or no background observed

O=C(CCCCC1SCC2NC(=O)NC21)NCC(=O)SCc1ccccc1 (stereo not drawn) [Probe 5, [5-(2-oxo-hexahydro-thieno[3,4-d]imidazol-6-yl)-pentanoylamino]-thioacetic acid S-benzyl ester]
cell toxicity (HEK293 cells): No cell toxicity was observed

CN(C)c1ccc2c(c1)Oc1cc(N(C)C)ccc1C21OC(=O)c2cc(C(=O)NCC(=O)SCc3ccccc3)ccc21 [Probe 3, amino thioacetic acid S-benzyl ester of 5-carboxy-tetramethylrhodamine]
site-specificity of labelling [1]: labelling occurred ONLY with proteins possessing an N-terminal cysteine | localization of labelling ([2]; 100 μM probe, 24 h): the majority of the labelling occurred inside the nucleus | FRET signal ([2]; excitation 436±10 nm, emission 620±30 nm): clear FRET signal in the nucleus of the labelled cells | FRET signal (N-terminal cysteine EGFP): a clear FRET signal was observed
